# Source: patent US4476120A, “Thiolic derivatives of erythromycin having therapeutic activity, and pharmaceutical compositions containing them” (Sigma Tau Indistrie Farmaceutiche Riunites, p.A, priority 1982, dated 1984)
# Columns and labels:
# [1] = system: B. anthranis SS 09; format: cell-based; conditions: B. anthranis SS 09 (14 bis); Brain Heart Infusion; estolate and RV11-RV15 previously hydrolized; unit assumed
# [2] = system: B. cereus ATCC 11778; format: cell-based; conditions: Brain Heart Infusion, estolate and RV11-RV15 previously hydrolized, unit assumed
# [3] = system: Staph. aureus SS 08; format: cell-based; conditions: Brain Heart Infusion, estolate and RV11-RV15 previously hydrolized, unit assumed
# [4] = system: Sr. marcescens SS 03; format: cell-based; conditions: Brain Heart Infusion, estolate and RV11-RV15 previously hydrolized, unit assumed
# [5] = system: Staph. albus SS 04; format: cell-based; conditions: Brain Heart Infusion, estolate and RV11-RV15 previously hydrolized, unit assumed
# [6] = system: B. subtilis SS 127; format: cell-based; conditions: Brain Heart Infusion, estolate and RV11-RV15 previously hydrolized, unit assumed
# [7] = Histological examination of bronchi after SO2 inhalation; format: in vivo, Sprague Dawley male rats; conditions: for histological appearance of non obstructed bronchi: free non obstructed
# [8] = system: H. influentiae SS 02; format: cell-based; conditions: Brain Heart Infusion, estolate and RV11-RV15 previously hydrolized, unit assumed
# [9] = system: E. coli SS 06; format: cell-based; conditions: Brain Heart Infusion, estolate and RV11-RV15 previously hydrolized, unit assumed
# [10] = system: N. meningitidis SS 04; format: cell-based; conditions: Brain Heart Infusion, estolate and RV11-RV15 previously hydrolized, unit assumed
# [11] = system: Staph. aureus SS 07; format: cell-based; conditions: Brain Heart Infusion, estolate and RV11-RV15 previously hydrolized, unit assumed
# [12] = system: Strept. haemolyticus SS 18; format: cell-based; conditions: Brain Heart Infusion, estolate and RV11-RV15 previously hydrolized, unit assumed
# [13] = system: E. coli SS 07; format: cell-based; conditions: Brain Heart Infusion, estolate and RV11-RV15 previously hydrolized, unit assumed
# [14] = system: Pr. mirabilis SS 09; format: cell-based; conditions: Brain Heart Infusion, estolate and RV11-RV15 previously hydrolized, unit assumed
# [15] = system: C. albicans SS 04; format: cell-based; conditions: Brain Heart Infusion, estolate and RV11-RV15 previously hydrolized, unit assumed
# [16] = system: Staph. aureus SS 07; assay: Experimental infection induced by Staph. aureus SS 07; format: in vivo, Swiss white mice; conditions: Staph. aureus SS 07, mg/kg of erythromycin, survival after 7 days, 10080 min
# In short: (§1)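 Swiss mice of 20 g infected parenterally with lethal amounts of Staph. aureus SS 07 or D. pneumoniae SS 23. Antibiotics were given at infection and again 6 and 24 h later. ED50 was derived from survival at 7 days.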
# [17] = system: N. gonorreae SS 27; format: cell-based; conditions: Brain Heart Infusion, estolate and RV11-RV15 previously hydrolized, unit assumed
# [18] = system: Cl. tetani SS 17; format: cell-based; conditions: Brain Heart Infusion, estolate and RV11-RV15 previously hydrolized, unit assumed
# [19] = system: Strept. haemolyticus SS 17; format: cell-based; conditions: Brain Heart Infusion, estolate and RV11-RV15 previously hydrolized, unit assumed
# [20] = system: Ps. aeruginosa SS 10; format: cell-based; conditions: Brain Heart Infusion, estolate and RV11-RV15 previously hydrolized, unit assumed
# [21] = system: E. coli SS 05; format: cell-based; conditions: Brain Heart Infusion, estolate and RV11-RV15 previously hydrolized, unit assumed
# [22] = system: Staph. aureus SS 10; format: cell-based; conditions: Brain Heart Infusion, estolate and RV11-RV15 previously hydrolized, unit assumed
# [23] = system: H. pertussis SS 03; format: cell-based; conditions: Brain Heart Infusion, estolate and RV11-RV15 previously hydrolized, unit assumed
# [24] = system: S. lutea ATCC 9341; format: cell-based; conditions: Brain Heart Infusion, estolate and RV11-RV15 previously hydrolized, unit assumed
# [25] = system: E. coli SS 04; format: cell-based; conditions: Brain Heart Infusion, estolate and RV11-RV15 previously hydrolized, unit assumed
# [26] = system: S. heidelberg SS 18; format: cell-based; conditions: Brain Heart Infusion, estolate and RV11-RV15 previously hydrolized, unit assumed
# [27] = system: Strept. faecalis SS 19; format: cell-based; conditions: Brain Heart Infusion, estolate and RV11-RV15 previously hydrolized, unit assumed
# [28] = system: D. pneumoniae SS 23; format: cell-based; conditions: Brain Heart Infusion, estolate and RV11-RV15 previously hydrolized, unit assumed
# [29] = system: E. cloacae SS 07; format: cell-based; conditions: Brain Heart Infusion, estolate and RV11-RV15 previously hydrolized, unit assumed
# [30] = Acute toxicity; format: in vivo; conditions: mortality 10 days after treatment, mice
# Experimental: The acute toxicity was assessed in Swiss white mice by oral and intravenous route. The LD50 values have been calculated by the methods of Probits, starting from the mortality recorded 10 days after the treatment.
# [31] = system: E. aerogenes SS 011; format: cell-based; conditions: Brain Heart Infusion, estolate and RV11-RV15 previously hydrolized, unit assumed
# [32] = system: B. anthranis SS 08; format: cell-based; conditions: Brain Heart Infusion, estolate and RV11-RV15 previously hydrolized, unit assumed
# [33] = system: Kl. pneumoniae SS 04; format: cell-based; conditions: Brain Heart Infusion, estolate and RV11-RV15 previously hydrolized, unit assumed
# Description: (§2) In the following table I the MIC/ml values are indicated corresponding to the lowest concentration capable of inducing a complete inhibition of the bacterial development.
# [34] = system: H. tubercolosis SS 03; format: cell-based; conditions: Brain Heart Infusion, estolate and RV11-RV15 previously hydrolized, unit assumed
# Description: as §2
# [35] = system: C. diphtheriae SS 19; format: cell-based; conditions: Brain Heart Infusion, estolate and RV11-RV15 previously hydrolized, unit assumed
# [36] = system: Staph. albus SS 03; format: cell-based; conditions: Brain Heart Infusion, estolate and RV11-RV15 previously hydrolized, unit assumed
# [37] = system: Pr. vulgaris SS 10; format: cell-based; conditions: Brain Heart Infusion, estolate and RV11-RV15 previously hydrolized, unit assumed
# [38] = system: Kl. aerogenes SS 71; format: cell-based; conditions: Brain Heart Infusion, estolate and RV11-RV15 previously hydrolized, unit assumed
# [39] = system: Citrobacter SS 05; format: cell-based; conditions: Brain Heart Infusion, estolate and RV11-RV15 previously hydrolized, unit assumed
# [40] = system: S. infantis SS 08; format: cell-based; conditions: Brain Heart Infusion, estolate and RV11-RV15 previously hydrolized, unit assumed
# [41] = system: Br. melitensis SS 19; format: cell-based; conditions: unit assumed
# [42] = system: D. pneumoniae SS 23; assay: Experimental infection induced by D. pneumoniae SS 23; format: in vivo, Swiss white mice; conditions: D. pneumoniae SS 23, mg/kg of erythromycin, survival after 7 days, 10080 min
# In short: as §1
# [43] = system: B. subtilis ATCC 6633; format: cell-based; conditions: Brain Heart Infusion, estolate and RV11-RV15 previously hydrolized, unit assumed
smiles,measurement,setting,value
"CC[C@H]1OC(=O)[C@H](C)[C@@H](O[C@H]2C[C@@](C)(OC)[C@@H](O)[C@H](C)O2)[C@H](C)[C@@H](O[C@@H]2O[C@H](C)C[C@H](N(C)C)[C@H]2O)[C@](C)(O)C[C@@H](C)C(=O)[C@H](C)[C@@H](O)[C@]1(C)O [RV05, erythromycin-N-acetylcysteinate]",MIC,[1],0.4 µg/mL
same,MIC,[2],0.4 µg/mL
same,MIC,[3],0.025 µg/mL
same,MIC,[4],200 µg/mL
same,MIC,[5],0.025 µg/mL
same,MIC,[6],0.01 µg/mL
same,histological appearance of non obstructed bronchi,"[7]; i.m., 250 mg/kg",practically normal appearance
same,histological appearance of obstructed bronchial tract,"[7]; i.m., 250 mg/kg",an appearance like that of the control animals
same,MIC,[8],0.8 µg/mL
same,MIC,[9],100 µg/mL
same,MIC,[10],0.8 µg/mL
same,MIC,[11],0.025 µg/mL
same,MIC,[12],0.8 µg/mL
same,MIC,[13],25 µg/mL
same,MIC,[14],> 200 µg/mL
same,MIC,[15],100 µg/mL
same,ED50 (reliability limits),[16]; os,2.08 (2.38-1.83) mg/kg
same,ED50 (reliability limits),[16]; s.c.,1.33 (1.61-1.10) mg/kg
same,MIC,[17],0.8 µg/mL
same,MIC,[18],0.2 µg/mL
same,MIC,[19],3 µg/mL
same,MIC,[20],200 µg/mL
same,MIC,[21],25 µg/mL
same,MIC,[22],0.025 µg/mL
same,MIC,[23],0.2 µg/mL
same,MIC,[24],0.01 µg/mL
same,MIC,[25],100 µg/mL
same,MIC,[26],100 µg/mL
same,MIC,[27],0.2 µg/mL
same,MIC,[28],0.05 µg/mL
same,MIC,[29],> 200 µg/mL
same,LD50 (reliability limits),"[30]; i.v., 14400 min",472.84 (529.08-442.57) mg.kg
same,LD50 (reliability limits),[30]; os,> 3000 mg·kg
same,MIC,[31],100 µg/mL
same,MIC,[32],0.4 µg/mL
same,MIC,[33],50 µg/mL
same,MIC,[34],50 µg/mL
same,MIC,[35],0.05 µg/mL
same,MIC,[36],0.05 µg/mL
same,MIC,[37],> 200 µg/mL
same,MIC,[38],50 µg/mL
same,MIC,[39],> 200 µg/mL
same,MIC,[40],100 µg/mL
same,MIC,[41],3 µg/mL
same,ED50 (reliability limits),[42]; os,119.31 (150.05-94.87) mg/kg
same,ED50 (reliability limits),[42]; s.c.,50.22 (62.33-40.46) mg/kg
same,MIC,[43],0.01 µg/mL
"CCC(=O)O[C@H]1[C@H](O[C@@H]2[C@@H](C)[C@H](O[C@H]3C[C@@](C)(OC)[C@@H](O)[C@H](C)O3)[C@@H](C)C(=O)O[C@H](CC)[C@@](C)(O)[C@H](O)[C@@H](C)C(=O)[C@H](C)C[C@@]2(C)O)O[C@H](C)C[C@@H]1N(C)C [RV11, erythromycin-monopropionate-alpha-mercaptosuccinate]",MIC,[1],0.4 µg/mL
same,MIC,[2],0.8 µg/mL
same,MIC,[3],0.025 µg/mL
same,MIC,[4],200 µg/mL
same,MIC,[5],0.05 µg/mL
same,MIC,[6],0.05 µg/mL
same,histological appearance of non obstructed bronchi,"[7]; oral, 500 mg/kg",presence of bronchi having almost normal appearance
same,histological appearance of obstructed bronchial tract,"[7]; oral, 500 mg/kg",fully like that of the control animals
same,MIC,[8],0.8 µg/mL
same,MIC,[9],50 µg/mL
same,MIC,[10],1.5 µg/mL
same,MIC,[11],0.05 µg/mL
same,MIC,[12],1.5 µg/mL
same,MIC,[13],50 µg/mL
same,MIC,[14],> 200 µg/mL
same,MIC,[15],200 µg/mL
same,ED50 (reliability limits),[16]; os,2.14 (2.40-1.91) mg/kg
same,MIC,[17],0.4 µg/mL
same,MIC,[18],0.2 µg/mL
same,MIC,[19],1.5 µg/mL
same,MIC,[20],100 µg/mL
same,MIC,[21],100 µg/mL
same,MIC,[22],0.025 µg/mL
same,MIC,[23],0.4 µg/mL
same,MIC,[24],0.01 µg/mL
same,MIC,[25],50 µg/mL
same,MIC,[26],100 µg/mL
same,MIC,[27],0.05 µg/mL
same,MIC,[28],0.025 µg/mL
same,MIC,[29],> 200 µg/mL
same,LD50 at 240 h,"[30]; mouse, in vivo, po, os, read-out: LD50 (reliability limits)",3000 mg/kg
same,MIC,[31],100 µg/mL
same,MIC,[32],0.8 µg/mL
same,MIC,[33],200 µg/mL
same,MIC,[34],50 µg/mL
same,MIC,[35],0.01 µg/mL
same,MIC,[36],0.05 µg/mL
same,MIC,[37],> 200 µg/mL
same,MIC,[38],100 µg/mL
same,MIC,[39],> 200 µg/mL
same,MIC,[40],100 µg/mL
same,MIC,[41],3 µg/mL
same,ED50 (reliability limits),[42]; os,100.41 (122.52-82.30) mg/kg
same,MIC,[43],0.025 µg/mL
